# Source: patent US6437128B1, “Cribrostatins 3-5” (Arizona Board of Regents, priority 2001, dated 2002)
# Columns and labels:
# [1] = system: HS578T; assay: NCI 60-cell screen; assay type: cell-based, human; settings: Homo sapiens, Hs-578T, averaged, quadruplicate, upper limit 10^−5 M, read-out: negative log10 GI50 (converted)
# [2] = system: OVCAR4; assay: NCI 60-cell screen; assay type: cell-based, human; settings: Homo sapiens, OVCAR-4, averaged, quadruplicate, upper limit 10^−5 M, read-out: negative log10 GI50 (converted)
# [3] = system: 786-O; assay: NCI 60-cell screen; assay type: cell-based, human; settings: Homo sapiens, 786-0, averaged, quadruplicate, upper limit 10^−5 M, read-out: negative log10 GI50 (converted)
# [4] = system: Streptococcus pneumoniae (ATCC 6303); assay: Antimicrobial disk diffusion; assay type: cell-based; settings: listed as 5
# [5] = system: U251; assay: NCI 60-cell screen; assay type: cell-based, human; settings: Homo sapiens, U-251, averaged, quadruplicate, upper limit 10^−5 M, read-out: negative log10 GI50 (converted)
# [6] = system: Penicillin-resistant N. gonorrhoeae (clinical isolate); assay: Antimicrobial disk diffusion; assay type: cell-based; settings: listed as 5
# [7] = system: SN12C; assay: NCI 60-cell screen; assay type: cell-based, human; settings: Homo sapiens, averaged, quadruplicate, upper limit 10^−5 M, read-out: negative log10 GI50 (converted)
# [8] = system: MOLT-4; assay: NCI 60-cell screen; assay type: cell-based, human; settings: Homo sapiens, averaged, quadruplicate, upper limit 10^−5 M, read-out: negative log10 GI50 (converted)
# [9] = system: Neisseria gonorrhoeae (ATCC 49226); assay: Antimicrobial disk diffusion; assay type: cell-based
# [10] = system: NCI 60-cell in vitro panel; assay: NCI 60-cell in vitro panel, mean panel; assay type: cell-based, human; settings: Homo sapiens, 60 cell; average ±SEM from the 40 cell lines that yielded GI50 values for both 4a and 5
# Text: (§1) Individual cell line response values are provided in the Experimental.
# [11] = system: MDA-MB-231/ATCC; assay: NCI 60-cell screen; assay type: cell-based, human; settings: Homo sapiens, averaged, quadruplicate, upper limit 10^−5 M, read-out: negative log10 GI50 (converted)
# [12] = system: PC-3; assay: NCI 60-cell screen; assay type: cell-based, human; settings: Homo sapiens, averaged, quadruplicate, upper limit 10^−5 M, read-out: negative log10 GI50 (converted)
# [13] = system: IGROV1; assay: NCI 60-cell screen; assay type: cell-based, human; settings: Homo sapiens, IGROV-1, averaged, quadruplicate, upper limit 10^−5 M, read-out: negative log10 GI50 (converted)
# [14] = system: UACC-62; assay: NCI 60-cell screen; assay type: cell-based, human; settings: Homo sapiens, averaged, quadruplicate, upper limit 10^−5 M, read-out: negative log10 GI50 (converted)
# [15] = system: Staphylococcus aureus (ATCC 29213); assay: Antimicrobial disk diffusion; assay type: cell-based
# [16] = system: SW-620; assay: NCI 60-cell screen; assay type: cell-based, human; settings: Homo sapiens, averaged, quadruplicate, upper limit 10^−5 M, read-out: negative log10 GI50 (converted)
# [17] = system: COLO 205; assay: NCI 60-cell screen; assay type: cell-based, human; settings: Homo sapiens, averaged, quadruplicate, upper limit 10^−5 M, read-out: negative log10 GI50 (converted)
# [18] = system: HOP-62; assay: NCI 60-cell screen; assay type: cell-based, human; settings: Homo sapiens, averaged, quadruplicate, upper limit 10^−5 M, read-out: negative log10 GI50 (converted)
# [19] = system: Bacillus subtilis (Presque Isle 620); assay: Antimicrobial disk diffusion; assay type: cell-based; settings: listed as 5
# [20] = system: OVCAR-3; assay: NCI 60-cell screen; assay type: cell-based, human; settings: Homo sapiens, averaged, quadruplicate, upper limit 10^−5 M, read-out: negative log10 GI50 (converted)
# [21] = system: Cryptococcus neoformans (ATCC 90112); assay: Antimicrobial disk diffusion; assay type: cell-based
# [22] = system: SR; assay: NCI 60-cell screen; assay type: cell-based, human; settings: Homo sapiens, averaged, quadruplicate, upper limit 10^−5 M, read-out: negative log10 GI50 (converted)
# [23] = system: SK-MEL-5; assay: NCI 60-cell screen; assay type: cell-based, human; settings: Homo sapiens, averaged, quadruplicate, upper limit 10^−5 M, read-out: negative log10 GI50 (converted)
# [24] = system: MDA-MB-435; assay: NCI 60-cell screen; assay type: cell-based, human; settings: Homo sapiens, averaged, quadruplicate, upper limit 10^−5 M, read-out: negative log10 GI50 (converted)
# [25] = system: BXPC-3 (Pancreas-a); assay: ASU-CRI minipanel of human cancer cell lines; assay type: cell-based; settings: Homo sapiens; Pancreas-a BXPC-3; read-out: GI50
# Text: as §1
# [26] = system: NCI-H460 (Lung-NSC); assay: ASU-CRI minipanel of human cancer cell lines; assay type: cell-based; settings: Homo sapiens, read-out: GI50
# Text: as §1
# [27] = system: FADU (Pharynx-sq); assay: ASU-CRI minipanel of human cancer cell lines; assay type: cell-based
# Text: as §1
# [28] = system: SW-1736 (Thyroid ca); assay: ASU-CRI minipanel of human cancer cell lines; assay type: cell-based; settings: Thyroid ca SW-1736
# Text: as §1
# [29] = system: KM20L2 (Colon); assay: ASU-CRI minipanel of human cancer cell lines; assay type: cell-based; settings: Homo sapiens, KM-20L2, read-out: GI50
# Text: as §1
# [30] = system: SF-295 (CNS); assay: ASU-CRI minipanel of human cancer cell lines; assay type: cell-based; settings: Homo sapiens; CNS SF-295; read-out: GI50
# Text: as §1
# [31] = system: OVCAR-3 (Ovarian); assay: ASU-CRI minipanel of human cancer cell lines; assay type: cell-based; settings: Homo sapiens; Ovarian OVCAR-3; read-out: GI50
# Text: as §1
# [32] = system: SK-N-SH (Neuroblast); assay: ASU-CRI minipanel of human cancer cell lines; assay type: cell-based
# Text: as §1
# [33] = system: DU-145 (Prostate); assay: ASU-CRI minipanel of human cancer cell lines; assay type: cell-based; settings: Homo sapiens; Prostate DU-145; read-out: GI50
# Text: as §1
# [34] = system: MCF7/ADR-RES; assay: NCI 60-cell screen; assay type: cell-based, human; settings: Homo sapiens, averaged, quadruplicate, upper limit 10^−5 M, read-out: negative log10 GI50 (converted)
# [35] = system: NCI-H522; assay: NCI 60-cell screen; assay type: cell-based, human; settings: Homo sapiens, averaged, quadruplicate, upper limit 10^−5 M, read-out: negative log10 GI50 (converted)
# [36] = system: T-47D; assay: NCI 60-cell screen; assay type: cell-based, human; settings: Homo sapiens, T47D, averaged, quadruplicate, upper limit 10^−5 M, read-out: negative log10 GI50 (converted)
# [37] = system: Escherichia coli (ATCC 25922); assay: Antimicrobial disk diffusion; assay type: cell-based
# [38] = system: SNB-75; assay: NCI 60-cell screen; assay type: cell-based, human; settings: Homo sapiens, averaged, quadruplicate, upper limit 10^−5 M, read-out: negative log10 GI50 (converted)
# [39] = system: SF-295; assay: NCI 60-cell screen; assay type: cell-based, human; settings: Homo sapiens, averaged, quadruplicate, upper limit 10^−5 M, read-out: negative log10 GI50 (converted)
# [40] = system: CCRF-CEM; assay: NCI 60-cell screen; assay type: cell-based, human; settings: Homo sapiens, averaged, quadruplicate, upper limit 10^−5 M, read-out: negative log10 GI50 (converted)
# [41] = system: Invasive S. pneumoniae (clinical isolate); assay: Antimicrobial disk diffusion; assay type: cell-based
# [42] = system: MALME-3M; assay: NCI 60-cell screen; assay type: cell-based, human; settings: Homo sapiens, averaged, quadruplicate, upper limit 10^−5 M, read-out: negative log10 GI50 (converted)
structure (smiles),measurement,setting,value
"C/C=C(/C)C(=O)OC[C@H]1C2=C(C=C3[C@H]4c5c(O)c(OC)c(C)c(O)c5C(=O)[C@@H](C(=O)N31)N4C)C(=O)C(C)=C(OC)C2=O [Cribrostatin 4, cribrostatin 4]",GI50,[1],8.71 µM
same,GI50,[2],1.82 µM
same,GI50,[3],6.17 µM
same,Minimum inhibitory concentration,[4],6.25-12.5 μg/disk
same,GI50,[5],6.46 µM
same,Minimum inhibitory concentration,[6],1.56-3.12 μg/disk
same,GI50,[7],7.08 µM
same,GI50,[8],1.91 µM
same,Minimum inhibitory concentration,[9],6.25-12.5 μg/disk
same,melting point,,190 to 192 °C (dec.)
same,GI50,[10],5.01 µM
same,GI50,[11],2.69 µM
same,GI50,[12],9.12 µM
same,GI50,[13],8.51 µM
same,GI50,[14],9.77 µM
same,Minimum inhibitory concentration,[15],* (No inhibition at 100 μg/disk)
same,GI50,[16],6.92 µM
same,GI50,[17],8.13 µM
same,GI50,[18],7.59 µM
same,Minimum inhibitory concentration,[19],12.5-25 μg/disk
same,GI50,[20],3.63 µM
same,Minimum inhibitory concentration,[21],* (No inhibition at 100 μg/disk)
same,GI50,[22],3.8 µM
same,GI50,[23],8.13 µM
same,GI50,[24],1.82 µM
same,GI50,[25],5.6 µg/mL
same,GI50,[26],> 10 µg/mL
same,GI50,[27],0.26 µg/mL
same,GI50,[28],> 10 µg/mL
same,GI50,[29],> 10 µg/mL
same,GI50,[30],> 10 µg/mL
same,GI50,[31],2.2 µg/mL
same,GI50,[32],3.6 µg/mL
same,GI50,[33],> 10 µg/mL
same,GI50,[34],6.76 µM
same,GI50,[35],4.17 µM
same,GI50,[36],2.09 µM
same,Minimum inhibitory concentration,[37],* (No inhibition at 100 μg/disk)
same,GI50,[38],5.62 µM
same,GI50,[39],8.91 µM
same,GI50,[40],1.7 µM
same,Minimum inhibitory concentration,[41],* (No inhibition at 100 μg/disk)
same,GI50,[42],0.389 µM
